One data set relates to tumour deposits. The experiment in a line: Human studies: tumour uptake by PET and histological correlation. The class given is in vivo. An excerpt:
patient with squamous cell carcinoma of the oesophagus • 2. Person with metastatic ovarian carcinoma • 3. Person with metastatic cutaneous squamous cell carcinoma • 4. Person with invasive ductal breast carcinoma.
Whilst blood pool and clearance are reproducible, tumour uptake and clearance vary by tumour type.
Dissected tumours were fixed in formalin, embedded in paraffin and 4 μm thick sections were cut. Adjacent sections were stained for apoptotic cells using TUNEL (Abcam, Cat #206386) or morphology using haematoxylin and eosin. For TUNEL staining, sections were deparaffinized in xylene, rehydrated in decreasing concentrations of ethanol and permeabilized with Proteinase K for 20 min at room temperature. The endogenous peroxidase activity was quenched with 3% H2O2 for 5 min. Apoptotic cells were labelled with biotinylated terminal deoxynucleotidyl transferase at 37° C. in a humidified chamber for 2 h followed by a 30 min incubation with streptavidin-HRP conjugate. HRP-positive cells were developed using diaminobenzidine and sections counterstained with methyl green (Sigma). Whole sections were imaged using PowerMosaic scanning at 10× magnification on a Leica DM6000D microscope.

Data set [1] is described as follows: In-human study of ^68Ga-CDI: biodistribution (PET CT, blood, urine). The class given is in vivo. On the procedure:
Subjects were encouraged to be well orally hydrated prior to ^68Ga-CDI administration, otherwise there was no preparation required. Two intravenous cannulas were placed (one for administration of ^68Ga-CDI and the other blood sampling during the study). Immediately prior to ^68Ga-CDI administration clinical assessment of participants was performed, vital signs (blood pressure, heart rate, respiratory rate, arterial oxygen saturation and temperature) measured and a 12-lead electrocardiogram (ECG) obtained and QTc calculated according to Bazett's formula to confirm eligibility. ^68Ga-CDI was administered as an intravenous bolus.
Eight serial PET scans were then performed from skull vertex to the proximal femora. The first PET scan commenced immediately following administration of ^68Ga-CDI, with subsequent scans commencing at approximately 7, 17, 29, 47, 64, 120 and 180 minutes after administration (+/−5 minutes). All scans were performed on a Phillips ingenuity TF 128 PET CT scanner (Philips Medical Systems, Cleveland) with acquisition times increasing for each subsequent scan ranging from 30 s/bed (immediately after administration) to 240 s/bed (at 180 minutes after administration) to compensate for excretion and decay. All PET scans were reconstructed using CT attenuation correction with a time of flight, list-mode, blob-based, ordered subsets maximum likelihood expectation maximization algorithm (BLOB-OS-TF) (reconstructed voxel size 4×4×4 mm).
Immediately prior to the scan commencing at approximately 47 minutes post administration a low-dose, non-contrast CT of the same region was performed for attenuation correction and localisation (of the first six scans during which time the patient had not moved) (44-120 mAs, 120-140 kV adjusted for body weight and body mass index, iDose 3 iterative reconstruction, reconstructed voxel size 1.17×1.17×3 mm). Ultra-low dose non-contrast CT (25 mAs, 100 kV, filtered back projection reconstruction, reconstructed voxel size 1.17×1.17×3 mm) was performed for attenuation correction immediately prior to the 120 minute and 180 minute PET scans.
During and immediately following completion of the scanning protocol, subjects were clinically assessed for adverse reactions and vital signs measured. Blood was collected for venous radioactivity measurements at 1, 2 and 3 hours following ^68Ga-CDI administration. Subjects were asked to void between 1.5 to 2 h and 2.75 to 3 h after ^68Ga-CDI administration, urine collected, the volume measured, and an aliquot counted in a gamma counter to determine activity concentration. Following completion of the scanning protocol, ECG was recorded, and blood collected for biochemical and haematological assessment.
For analysis of uptake and biodistribution in normal tissues and organs, spherical volumes of interest (VOIs) were drawn on the Digital Imaging and Communications in Medicine (DICOM) ^68Ga-CDI-PET emission data on a workstation (IntelliSpace Portal, V5.0.2.60000, Philips Medical System, Best, The Netherlands) by an experienced nuclear medicine physician over clearly tumor-free regions of organs. VOI diameter varied depending on organ size but where possible was at least 10 mm. Spherical VOIs were also drawn over all tumor deposits greater than 10 mm in diameter. These VOIs were replicated across all time points and the mean, maximum and standard deviation of the activity concentration (Bq/mL) of all VOIs at each time point was recorded. Activity concentration was used to calculate the % injected activity (% IA) for organs and tissues based on the masses of source organs for standard phantom male and female models (Stabin & Siegel, Health Phys. 2003; 85:294-310). Mean, maximum and standard deviation of the SUV for each VOI was also a calculated from the activity concentration using the slope intercept stored with the DICOM CDI PET emission data.

For the molecule `O=C(O)CNC(=O)[C@H](CSCC(=O)Nc1ccc([As](O)O)cc1)NC(=O)CC[C@H](NC(=O)CCC1C(=O)[O][68Ga]2[O]C(=O)CN3CCN(CCN1CC3)CC(=O)[O]2)C(=O)O` (some centres unmarked) [^68Ga-NODAGA-GSAO], the “tumour uptake SUVmean” value in the data set with tumour deposits (breast carcinoma) turned out to be 1.8; in the data set with tumour deposits (metastatic cutaneous squamous cell carcinoma), 4.1; with tumour deposits (metastatic ovarian carcinoma) it was 1.9; with tumour deposits (patient 3, right axillary nodal metastasis), 4.1; in the data set on tumour deposits (squamous cell carcinoma of the oesophagus), 3.8. In addition, the “correlation of tumour uptake with dead and dying cells” value in the data set on tumour deposits (histopathology) is “correlate with the proportion of dead and dying cells within the tumour”. Besides, in the data set on tumour deposits (tumours with high uptake), the “tumour uptake relative to blood pool” value is recorded as “up to 2 fold”. Moreover, the results for the “activity remaining in the blood pool, average” value in data set [1] (1 hour), in data set [1] (2 hours) and in data set [1] (3 hours) were 12.2 % IA, 8.8 % IA and 7.7 % IA, respectively. For the same molecule, the “average SUV kidneys” value in data set [1] (1 hour post injection) stood at 5.3 SUV; in data set [1] (2 hours post injection) it was 4.9 SUV; in data set [1] (3 hours post injection), 4.0 SUV. Moreover, the “total activity excreted in urine” value in data set [1] (by 90 minutes) is 39±18%.

The record behind these values is patent US20250269072A1, “PROCESSES FOR PREPARING RADIOLABELLED CONJUGATES” (CENTENARY INSTITUTE OF CANCER MEDICINE AND CELL BIOLOGY, priority 2021, published 2025).
